{"source": "patent US20250161286A1", "about": "(AEVIS BIO, INC., priority 2022, published 2025)", "key": {"BV-2 cells": {"system": "BV-2 cells", "experiment": "Nitrite content in culture solution of LPS-stimulated BV-2 cells (Griess Reagent System)", "assay_type": "cell-based, mouse", "conditions": "BV-2 cells, 3.33, 10 or 30 μM, 1 μg/mL LPS, 24 hours", "experimental": "To further confirm the oxidative stress suppression effect, the content of nitrite released due to an inflammatory response and the expression levels of iNOS, which is an enzyme that produces nitric oxide, and COX-2, which is cyclooxygenase-2, were determined in mouse microglial cells (BV-2, ATCC, Manassas, VA, USA).\nTo determine the content of nitrite and the protein expression levels of iNOS and COX-2, BV-2 was seeded in a 12-well plate (Corning, MD, USA) at 1.5×10^5 cells/well, and cultured using a DMEM medium (Corning, MD, USA) containing 10% fetal bovine serum (Corning, MD, USA) and 100 U/ml of penicillin/streptomycin (Corning, MD, USA) at 37° C. in a 5% CO2 incubator for one day for stabilization. […] 1 μg/mL of LPS (Sigma, USA) was added to all experimental groups excluding the non-inflammation-induced group and allowed to react at 37° C. in a 5% CO2 incubator for 24 hours.\nThe cell culture solution was collected to measure the content of nitrite, and centrifuged at 3,000 rpm for 5 minutes to obtain a supernatant. The concentration of nitrite in the cell culture solution was measured using a microplate reader (NEO2MALPHAB Synergy Neo-2, BioTek, CA, US) according to the manual of the Griess Reagent System (#G2930, Promega, WI, USA)."}, "[1]": {"system": "tyrosine hydroxylase (TH)", "experiment": "Immunohistochemical test of tyrosine hydroxylase in brain of MPTP mice", "assay_type": "in vivo, mouse", "conditions": "oral, versus MPTP group", "experimental": "(§1) To cause the disease, mice in the G2, G3, G4, and G5 groups were administered MPTP dissolved in saline via an intraperitoneal route at 2-hour intervals four times a day (20 mg/kg/time), while the G1 group received the same amount of saline.\nAfter the end of the test on day 7, the brain tissue of the sacrificed mice was collected, sectioned, and analyzed.\nSix mice per group were fixed by perfusion with saline followed by perfusion with 4% paraformaldehyde (Biosesang, cat #PC2031-000-00). Each brain tissue was rapidly frozen after isolation and stored at −80° C. until tissue sectioning. Sections for immunohistochemical testing were embedded in an OCT compound (SAKURA, cat #4583), samples were sectioned into 20 μm-thick sections using a cryomicrotome, Leica CM1950 (Leica Microsystems, Germany), and each section was stored at 4° C. until an antibody reaction. […] Images stained with the tyrosine hydroxylase antibody were observed under a microscope (Olympus, SZ61, BX51), and the OD values, which are immunostaining-positive, observed in the striatum and substantia nigra tissue were measured and analyzed by the Image J program."}, "[2]": {"system": "mouse model with Parkinson's disease induced by MPTP administration", "experiment": "Grip strength test in MPTP-induced Parkinson's disease mouse model", "assay_type": "in vivo", "conditions": "MPTP mice", "experimental": "as §1\nA grip strength test was performed on day 6 of the test. When a mouse put on a grip strength measuring device (SLD-5FGN, Duratool, China) pulled a net of the device, the measuring device automatically measured the animal's grip strength and expressed it in grams. The average value was measured through five tests per individual."}, "SALL4": {"system": "SALL4", "experiment": "SALL4 degradation by immunoblotting in Tera-1 cells", "assay_type": "cell-based, human", "conditions": "0.000128-10 μM, 4 hours", "excerpt": "It has been reported that a cereblon (CRBN)-binding therapeutic such as a thalidomide-based compound can cause severe congenital abnormalities such as forelimb shortening or brachydactyly, which are closely associated with the decomposition of SALL4.\nTo this end, the Tera-1 cell line (HTB-105), which is a human embryonic carcinoma cell line, was purchased from the American Type Culture Collection (ATCC, Manassas, VA, USA) and used, and then cultured using a DMEM medium (Corning, MD, USA) supplemented with 10% fetal bovine serum (Corning, MD, USA), 100 U/ml of penicillin (Corning, MD, USA), and 100 μg/ml streptomycin (Corning, MD, USA) at 37° C. in a 5% CO2 incubator.\nThe cells were disrupted by adding a RIPA buffer containing a protease inhibitor cocktail (Thermo Fisher Scientific), and centrifuged at 14,000 rpm for 15 minutes at 4° C. to obtain a cell extract. Equal amounts of the cell extract were loaded, and proteins were separated by SDS-PAGE and then transferred to a PVDF membrane. The protein-transferred membrane was blocked using skim milk, incubated with a primary antibody for 3 hours at room temperature, and then incubated with an HRP-conjugated secondary antibody for 1 hour at room temperature. The resulting product was washed with TBS-T three times between steps. […]"}}}
{"smiles": "Nc1cccc2c1C(=S)N(C1CCC(=O)NC1=O)C2=O", "note": "(stereo not drawn) [3-MP, 3-thiopomalidomide]", "values": [{"measurement": "amount of nitrite released by LPS", "setting": "BV-2 cells", "value": "effectively reduced the amount of the residual nitrite released by LPS"}, {"measurement": "expression of tyrosine hydroxylase in the substantia nigra", "setting": "[1]; 30 and 90 mg/kg", "value": "increased in a statistically significant manner"}, {"measurement": "expression of tyrosine hydroxylase (TH) in the striatum", "setting": "[1]; all doses, particularly 30 mg/kg", "value": "significantly increased"}, {"measurement": "grip strength", "setting": "[2]; oral, 90 mg/kg", "value": "recovered to a level similar to that of the vehicle administration group"}, {"measurement": "grip strength", "setting": "[2]; oral, 10, 30, 90 mg/kg/day, versus MPTP group", "value": "increased in a concentration-dependent manner"}, {"measurement": "decomposition of SALL4", "setting": "SALL4", "value": "less decomposition of SALL4 than pomalidomide"}]}
